Test results taken from patent US12252524B2, “GIP/GLP1 co-agonist compounds” (Eli Lilly and Company, priority 2018, dated 2025).
Numbered stars: 1 amine (or outer) side, 2 acyl side, 3 side chain; on linkers, the order of the positions; unused ones are H or OH. Square brackets hold non-standard residues; d marks the D form. Side chains are listed from the residue outwards. Peptide text beside a SMILES is read from it. * marks the point of attachment. C20 diacid = O=C(O)CCCCCCCCCCCCCCCCCCC(=O)*; C18 diacid = O=C(O)CCCCCCCCCCCCCCCCC(=O)*; γGlu = O=C(O)[C@H](CCC(=O)[*:2])N[*:1]; αMeL = CC(C)C[C@](C)(N)C(=O)O; AEEA = NCCOCCOCC(=O)O; Aib = CC(C)(N)C(=O)O

Columns and labels:
human GIP receptor = molecular target: T1, human GIP receptor (Homo sapiens, UniProt P48546); test: [125I]-GIP binding (SPA), human GIP receptor; settings: read-out: hGIPR Ki, nM (SEM, n)
T1 construct: expressed in transfected cells; crude membranes
T1 sequence (P48546 22-466): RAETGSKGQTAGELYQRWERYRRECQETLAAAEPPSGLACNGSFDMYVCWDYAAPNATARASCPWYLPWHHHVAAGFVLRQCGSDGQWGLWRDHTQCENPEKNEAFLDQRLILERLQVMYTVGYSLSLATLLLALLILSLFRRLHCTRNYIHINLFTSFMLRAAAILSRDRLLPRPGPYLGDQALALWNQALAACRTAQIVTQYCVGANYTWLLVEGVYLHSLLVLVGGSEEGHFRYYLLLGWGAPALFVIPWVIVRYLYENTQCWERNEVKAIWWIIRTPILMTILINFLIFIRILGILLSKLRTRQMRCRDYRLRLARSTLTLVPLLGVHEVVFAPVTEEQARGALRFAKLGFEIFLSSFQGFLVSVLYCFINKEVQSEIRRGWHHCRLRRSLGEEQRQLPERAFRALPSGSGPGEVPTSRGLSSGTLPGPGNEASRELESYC

human GLP-1R [1] = molecular target: T2, human GLP-1R (Homo sapiens, UniProt P43220); test: GLP-1R HEK293 cell membrane [35S]GTPγS binding assay; type: biochemical; set-up: expressed in transfected cells; host or cells: HEK293 cells expressing human GLP-1R; membranes; settings: HEK293 cell membranes expressing human GLP-1R, [35S]GTPγS binding; read-out: hGLP1R GTPgS Rel EC50 nM (SEM, n)
T2 sequence (P43220 24-463): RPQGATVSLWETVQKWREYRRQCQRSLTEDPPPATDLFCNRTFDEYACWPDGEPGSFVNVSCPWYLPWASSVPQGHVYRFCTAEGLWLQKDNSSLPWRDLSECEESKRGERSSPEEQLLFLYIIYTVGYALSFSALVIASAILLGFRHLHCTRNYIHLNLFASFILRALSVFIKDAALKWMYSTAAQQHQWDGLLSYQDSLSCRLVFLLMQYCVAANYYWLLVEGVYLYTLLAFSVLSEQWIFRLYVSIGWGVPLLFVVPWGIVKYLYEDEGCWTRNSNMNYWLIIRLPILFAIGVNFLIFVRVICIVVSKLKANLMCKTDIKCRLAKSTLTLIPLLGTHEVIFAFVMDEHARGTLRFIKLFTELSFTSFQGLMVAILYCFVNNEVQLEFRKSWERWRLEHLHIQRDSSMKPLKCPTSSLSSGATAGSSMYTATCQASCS
Procedure: The GLP-1 receptor is a G-protein coupled receptor that increases GTP-bound Gas upon ligand induced receptor activation. The potency of peptides to stimulate-GLP-1R induced activation of Gac is determined using preparations of purified membranes from HEK293 cells expressing the human GLP-1R. […] The test peptides are solubilized in DMSO and diluted in reaction buffer containing 5 μg of membrane in 20 mM HEPES pH 7.4, 50 mM NaCl, 5 mM MgCl2, 40 μg/ml saponin, 0.1% BSA, and […] ^35S-labeled GTPTS for 30 minutes at room temperature. Reactions are terminated by addition of 0.2% Nonidet β-40 detergent containing rabbit anti-Gas polyclonal antibody and 0.5 mg of anti-rabbit polyvinyltoluene beads. Mixtures are developed for 30 minutes, centrifuged at 80×g for 10 minutes, and counted for 1 minute/well using a MicroBeta TriLux instrument. Peptide concentration-response curves are fit to a four-parameter logistic model to calculate potency as an EC50.

[2] = molecular target: T3, gastric inhibitory peptide receptor (GIPR) (Homo sapiens, UniProt P48546); test: cAMP pharmacological functional assay in presence of casein, hGIPR; type: cell-based; settings: HEK293 cells expressing hGIPR, 0.1% Casein, geometric mean; read-out: hGIPR cAMP Rel EC50 nM (SEM, n)
T3 sequence (P48546 22-466): T1 sequence (P48546 22-466)

[3] = molecular target: human GLP-1 receptor (GLP-1R) (Homo sapiens, UniProt P43220); test: cAMP pharmacological functional assay in presence of casein, hGLP-1R; type: cell-based; settings: HEK293 cells expressing hGLP-1R, 0.1% Casein, geometric mean; read-out: hGLP1R cAMP Rel EC50 nM (SEM, n)
Sequence of human GLP-1 receptor (GLP-1R) (P43220 24-463): as above

human Gcg receptor = molecular target: T4, human Gcg receptor (Homo sapiens, UniProt P47871); test: [125I]-Glucagon binding (SPA), human Gcg receptor; settings: read-out: hGLcgR Ki, nM (SEM, n)
T4 construct: expressed in transfected cells; crude membranes
T4 sequence (P47871 26-477): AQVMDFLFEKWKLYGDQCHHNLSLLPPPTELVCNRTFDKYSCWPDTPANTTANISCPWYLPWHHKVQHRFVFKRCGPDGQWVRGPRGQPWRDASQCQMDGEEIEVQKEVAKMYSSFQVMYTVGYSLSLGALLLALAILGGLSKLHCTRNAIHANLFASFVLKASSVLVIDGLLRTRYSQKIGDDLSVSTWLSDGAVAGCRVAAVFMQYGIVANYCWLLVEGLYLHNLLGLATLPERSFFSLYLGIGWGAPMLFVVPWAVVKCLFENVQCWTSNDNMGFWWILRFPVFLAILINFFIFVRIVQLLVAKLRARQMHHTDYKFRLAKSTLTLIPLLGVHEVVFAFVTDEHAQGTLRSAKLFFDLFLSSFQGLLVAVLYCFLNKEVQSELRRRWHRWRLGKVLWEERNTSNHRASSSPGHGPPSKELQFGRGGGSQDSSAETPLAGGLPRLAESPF
Procedure, shortened: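 Scintillation counts are taken after membranes and WGA beads incubate and settle for 12 hours at room temperature. Buffer is 25 mM HEPES, pH 7.4, with CaCl2, MgCl2, bacitracin and Tween-20. Ki values, from four-parameter IC50 fits, are geometric means over independent days.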

human GLP-1R [4] = molecular target: T2, human GLP-1R; test: [125I]-GLP-1 binding (SPA), human GLP-1 receptor; set-up: expressed in transfected cells; crude membranes; settings: read-out: hGLP1R Ki, (nM) (SEM, n)
Procedure, shortened: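 Ki values are geometric means with SEM over independent replicates on different days, derived from IC50s fitted by four-parameter nonlinear regression. The assay used crude cell membranes in HEPES buffer, pH 7.4, containing CaCl2, MgCl2, bacitracin and TWEEN-20.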

Row | Compound | Ki (human GIP receptor) [nM] | EC50 (human GLP-1R [1]) [nM] | EC50 [2] [nM] | EC50 [3] [nM] | Ki (human Gcg receptor) [nM] | Ki (human GLP-1R [4]) [nM]
1 | CC[C@H](C)[C@H](NC(=O)[C@H](CC(C)C)NC(=O)[C@H](Cc1ccc(O)cc1)NC(=O)[C@H](CCC(=O)O)NC(=O)[C@@H](NC(=O)[C@H](Cc1ccccc1)NC(=O)[C@H](CCC(=O)O)NC(=O)C(C)(C)NC(=O)[C@H](CCC(N)=O)NC(=O)[C@H](C)NC(=O)[C@H](CCCCNC(=O)COCCOCCNC(=O)COCCOCCNC(=O)CC[C@H](NC(=O)CCCCCCCCCCCCCCCCCCC(=O)O)C(=O)O)NC(=O)[C@H](CCCCN)NC(=O)[C@H](CC(=O)O)NC(=O)[C@H](CC(C)C)NC(=O)[C@H](CC(C)C)NC(=O)[C@@H](NC(=O)[C@H](CO)NC(=O)[C@H](Cc1ccc(O)cc1)NC(=O)[C@H](CC(=O)O)NC(=O)[C@H](CO)NC(=O)[C@@H](NC(=O)[C@H](Cc1ccccc1)NC(=O)[C@@H](NC(=O)CNC(=O)[C@H](CCC(=O)O)NC(=O)C(C)(C)NC(=O)[C@@H](N)Cc1ccc(O)cc1)[C@@H](C)O)[C@@H](C)O)[C@@H](C)CC)[C@@H](C)CC)C(=O)N[C@@H](C)C(=O)NCC(=O)NCC(=O)N1CCC[C@H]1C(=O)N[C@@H](CO)C(=O)N[C@@H](CO)C(=O)NCC(=O)N[C@@H](C)C(=O)N1CCC[C@H]1C(=O)N1CCC[C@H]1C(=O)N1CCC[C@H]1C(=O)N[C@@H](CO)C(N)=O [Example 319] (H-Y[Aib]EGTFTSDYSILLDKK([AEEA-AEEA-γGlu-C20 diacid])AQ[Aib]EFIEYLIAGGPSSGAPPPS-NH2) | 0.0349 | 0.657 | 0.054 | 0.113 | > 984 | 3.61
2 | CC[C@H](C)[C@H](NC(=O)[C@H](CC(C)C)NC(=O)[C@H](Cc1ccc(O)cc1)NC(=O)[C@H](CCC(=O)O)NC(=O)[C@@H](NC(=O)[C@H](Cc1ccccc1)NC(=O)[C@H](C)NC(=O)C(C)(C)NC(=O)[C@H](CCC(N)=O)NC(=O)[C@H](C)NC(=O)[C@H](CCCCNC(=O)COCCOCCNC(=O)COCCOCCNC(=O)CC[C@H](NC(=O)CCCCCCCCCCCCCCCCC(=O)O)C(=O)O)NC(=O)[C@H](CCC(=O)O)NC(=O)[C@H](CC(=O)O)NC(=O)[C@H](CC(C)C)NC(=O)[C@](C)(CC(C)C)NC(=O)[C@@H](NC(=O)[C@H](CO)NC(=O)[C@H](Cc1ccc(O)cc1)NC(=O)[C@H](CC(=O)O)NC(=O)[C@H](CO)NC(=O)[C@@H](NC(=O)[C@H](Cc1ccccc1)NC(=O)[C@@H](NC(=O)CNC(=O)[C@H](CCC(=O)O)NC(=O)C(C)(C)NC(=O)[C@@H](N)Cc1ccc(O)cc1)[C@@H](C)O)[C@@H](C)O)[C@@H](C)CC)[C@@H](C)CC)C(=O)N[C@@H](CCC(=O)O)C(=O)NCC(=O)NCC(=O)N1CCC[C@H]1C(=O)N[C@@H](CO)C(=O)N[C@@H](CO)C(=O)NCC(=O)N[C@@H](C)C(=O)N1CCC[C@H]1C(=O)N1CCC[C@H]1C(=O)N1CCC[C@H]1C(=O)N[C@@H](CO)C(N)=O [Example 323] (H-Y[Aib]EGTFTSDYSI[αMeL]LDEK([AEEA-AEEA-γGlu-C18 diacid])AQ[Aib]AFIEYLIEGGPSSGAPPPS-NH2) | 0.0516 | 0.79 | 0.0251 | 0.0597 | 300 | 1.65
